According to ChEMBL document CHEMBL4373734, “Overcoming imatinib resistance in chronic myelogenous leukemia cells using non-cytotoxic cell death modulators” (Eur J Med Chem, 2020):
Calls of active or inactive are those of the source. The calls are words filed in the database; no cut-off is given here.

Assays:
[1] = tested on: K562; assay: Cytotoxicity against human K562 cells assessed as cell death at 10 uM after 72 hrs by propidium iodide/Triton-X100 dye based FACS analysis; conditions: k562, 72 h
[2] = tested on: COS-7; assay: Cytotoxicity against African green monkey COS7 cells assessed as effect on cell metabolic activity at 20 uM after 72 hrs by MTT assay; assay type: ADME, cell-based; conditions: chlorocebus aethiops, cos-7, 72 h
[3] = molecular target: T1, Peroxisome proliferator-activated receptor gamma (Homo sapiens) (UniProt P37231); assay: Transactivation of Gal4-fused human PPARgamma transfected in COS7 cells co-transfected with pGAL5-TK-pGL3 and pRennilla-CMV assessed as maximum intrinsic activation at 10 uM incubated for 39 hrs by dual luciferase reporter assay relative to pioglitazone; assay type: cell-based
T1 sequence (whole entry): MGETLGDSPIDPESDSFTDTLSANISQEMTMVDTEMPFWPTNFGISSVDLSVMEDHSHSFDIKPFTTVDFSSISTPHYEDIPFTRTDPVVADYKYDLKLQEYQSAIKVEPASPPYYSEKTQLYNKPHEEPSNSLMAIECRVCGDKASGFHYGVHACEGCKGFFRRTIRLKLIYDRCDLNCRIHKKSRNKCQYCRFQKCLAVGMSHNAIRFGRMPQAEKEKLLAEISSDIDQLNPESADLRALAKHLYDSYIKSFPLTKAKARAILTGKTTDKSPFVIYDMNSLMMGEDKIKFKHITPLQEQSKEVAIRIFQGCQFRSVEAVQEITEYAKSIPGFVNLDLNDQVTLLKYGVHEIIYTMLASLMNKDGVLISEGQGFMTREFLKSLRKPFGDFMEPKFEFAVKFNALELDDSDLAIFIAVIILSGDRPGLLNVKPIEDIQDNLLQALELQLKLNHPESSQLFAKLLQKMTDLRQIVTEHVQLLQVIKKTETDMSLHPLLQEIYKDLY

[4] = tested on: K562-IMA[r]; assay: Cytotoxicity against imatinib-resistant human K562-IMA[r] cells assessed as induction of cell death at 10 uM after 72 hrs by propidium iodide/Triton-X100 dye based FACS analysis relative to control
[5] = tested on: K562-IMA[r]; assay: Induction of sensitization to imatinib-induced cytotoxicity in imatinib-resistant human K562-IMA[r] cells assessed as induction of cell death measured after 72 hrs in presence of 1 uM imatinib by propidium iodide/Triton-X100 dye based FACS analysis; assay type: functional
[6] = tested on: K562-IMA[r]; assay: Decrease in STAT5 expression in imatinib-resistant human K562-IMA[r] cells at 10 uM after 24 hrs in presence of 1 uM imatinib by Western blot analysis; assay type: functional, cell-based
[7] = molecular target: T1, Peroxisome proliferator-activated receptor gamma (Homo sapiens); assay: Transactivation of Gal4-fused human PPARgamma transfected in COS7 cells co-transfected with pGAL5-TK-pGL3 and pRennilla-CMV assessed as maximum intrinsic activation at 20 uM incubated for 39 hrs by dual luciferase reporter assay; assay type: cell-based
[8] = tested on: K562-IMA[r]; assay: Induction of sensitization to imatinib-induced cytotoxicity in imatinib-resistant human K562-IMA[r] cells assessed as gain in cell death rate at 5 uM measured after 72 hrs in presence of 1 uM imatinib by propidium iodide/Triton-X100 dye based FACS analysis relative to imatinib-treated control; assay type: functional
[9] = tested on: K562-IMA[r]; assay: Induction of sensitization to imatinib-induced cytotoxicity in imatinib-resistant human K562-IMA[r] cells assessed as induction of cell death at 10 uM after 72 hrs in presence of 1 uM imatinib by propidium iodide/Triton-X100 dye based FACS analysis (reference value: 15%); assay type: functional
[10] = Solubility of compound in DMSO at 10 uM by microscopic analysis; assay type: physicochemical
[11] = tested on: K562-IMA[r]; assay: Induction of sensitization to imatinib induced cytotoxicity in imatinib-resistant human K562-IMA[r] cells assessed as cell death up to 2.5 uM measured after 72 hrs in presence of 1 uM imatinib by propidium iodide/Triton-X100 dye based FACS analysis; assay type: functional
[12] = Cytotoxicity against human HS5 cells assessed as cell death at 10 uM after 72 hrs by propidium iodide/Triton-X100 dye based FACS analysis
[13] = Solubility of compound in water at >20 uM; assay type: physicochemical; conditions: buffer
[14] = tested on: K562-IMA[r]; assay: Induction of sensitization to imatinib-induced cytotoxicity in imatinib-resistant human K562-IMA[r] cells assessed as induction of cell death at 10 uM after 72 hrs in presence of 1 uM imatinib by propidium iodide/Triton-X100 dye based FACS analysis; assay type: functional
[15] = tested on: K562-IMA[r]; assay: Cytotoxicity against imatinib-resistant human K562-IMA[r] cells assessed as cell death at 10 uM after 72 hrs by propidium iodide/Triton-X100 dye based FACS analysis
[16] = tested on: K562-IMA[r]; assay: Induction of sensitization to imatinib-induced cytotoxicity in imatinib-resistant human K562-IMA[r] cells assessed as cell death at 0.1 to 10 uM measured after 72 hrs in presence of 1 uM imatinib by propidium iodide/Triton-X100 dye based FACS analysis; assay type: functional

Row | SMILES | Activity [1] | Activity [2] | Intrinsic activity [3] [%] | Activity [4] [%] | Activity [5] | Activity [6] | Intrinsic activity [7] | Activity [8] [%] | Activity [9] | solubility [10] | Activity [11] | Activity [12] | solubility [13] | Activity [14] | Activity [15] | Activity [16]
1 | CCCc1nc2c(Br)cccc2n1Cc1ccc(-c2ccccc2C(N)=O)cc1 | Non-Toxic | Non-Toxic | 20.8 | < 20 | Dose-dependent effect | Active | inactive | 21.4 | 62 - 78% | Soluble | inactive | Non-Toxic | Insoluble | – | – | –
2 | CCc1ccc(CCOc2ccc(CC3SC(=O)NC3=O)cc2)nc1 (centres undefined) [PIOGLITAZONE] | – | – | – | – | – | – | – | – | – | – | – | – | – | Active | Non-Toxic | inactive
3 | CCCc1nc2ccccc2n1Cc1ccc(-c2ccccc2C(N)=O)cc1 | Non-Toxic | Non-Toxic | 39.5 | < 20 | Dose-dependent effect | Active | inactive | 16 | 62 - 78% | Soluble | inactive | Non-Toxic | Insoluble | – | – | –
